In a compilation of properties of binary mixtures (doi:10.1039/c3ra40303c):

Test: xn = mol fraction of the nth substance listed
Conditions: 101 kPa

CC(O)C(=O)[O-].C[N+](C)(C)CCO + CCO
viscosity [mPa·s]
Conditions	x2 = 0	x2 = 0.1039	x2 = 0.2011	x2 = 0.2996	x2 = 0.3999	x2 = 0.5003	x2 = 0.601	x2 = 0.7013	x2 = 0.7987	x2 = 0.8996
293.15 K	818	553	365	–	132.5	73.48	39.35	–	–	3.602
298.15 K	559	388	263.7	165.1	101.5	57.11	31.94	14.73	–	3.207
303.15 K	393	277.4	193.2	123.9	78.06	45.19	–	12.36	6.351	–
308.15 K	283.9	203.7	–	94.9	61.01	36.35	21.38	10.49	5.524	2.548
313.15 K	209.9	152.9	110.8	74.08	48.57	29.65	17.83	8.99	4.841	2.286
318.15 K	–	117.2	86.3	58.82	39.27	24.51	–	7.773	4.27	2.059
323.15 K	122.3	–	68.43	47.45	32.22	–	12.83	6.779	–	1.862
328.15 K	95.9	–	55.07	38.8	26.76	17.33	–	5.952	–	1.685
333.15 K	76.5	–	44.95	32.13	22.49	14.8	–	5.255	3.041	1.525
338.15 K	61.9	47.9	37.15	26.9	–	12.76	8.445	4.66	2.747	1.38
343.15 K	50.76	39.73	31.06	22.76	16.36	11.09	7.459	4.145	2.498	1.265

CC(O)C(=O)[O-].C[N+](C)(C)CCO + O
viscosity [mPa·s]
Conditions	x2 = 0	x2 = 0.0992	x2 = 0.2048	x2 = 0.3008	x2 = 0.4038	x2 = 0.5026	x2 = 0.5858	x2 = 0.701	x2 = 0.7993	x2 = 0.8998
293.15 K	818	620	478	375	259.2	–	117.8	59.52	–	–
298.15 K	–	433	336.9	266.4	–	128	–	45.76	–	6.185
303.15 K	393	–	242.5	193.6	138.2	95.8	66.88	35.7	16.85	5.25
308.15 K	283.9	225.3	178.9	–	104.4	73.36	51.91	28.36	13.79	–
313.15 K	209.9	168.3	134.9	107.7	80.45	57.24	41.04	22.9	11.44	–
318.15 K	158.7	128.4	103.9	85.2	63.16	45.5	32.99	18.78	–	3.405
323.15 K	122.3	99.8	81.5	67.27	50.43	36.74	26.93	–	–	3.001
328.15 K	95.9	78.9	64.95	54	40.89	30.11	22.29	13.14	–	2.666
333.15 K	76.5	63.39	–	–	33.61	24.92	18.67	–	6.101	2.384
338.15 K	61.9	51.63	43.1	36.28	27.97	20.93	15.82	9.621	5.323	2.146
343.15 K	50.76	42.6	35.8	30.3	23.55	17.78	13.55	8.353	4.692	1.941
348.15 K	42.13	35.55	30.05	25.59	20.05	15.25	11.71	7.305	4.171	–
353.15 K	35.38	–	25.52	21.82	17.22	13.2	10.2	6.438	–	–
